Data on 15 compounds can be found in patent publication US12459951B2, “Compounds that interact with RAS superfamily proteins for treatment of cancers, inflammatory diseases, rasopathies, and fibrotic disease” (SHY Therapeutics, LLC, priority 2022, dated 2025).

Test [1] relates to IL6. In words: IL-6 Quantification Assay (ELISA), LPS-stimulated RAW 264.7. The following applies: Mus musculus, RAW264.7; read-out: IL-6: % inh. Further details: inhibition: dose or concentration left out as unconfirmed. It is filed as cell-based. In general terms: ELISA stands for enzyme-linked immunosorbent assay.
The subject of test [2] is TNF-alpha. In words: TNF-alpha Quantification Assay (ELISA), LPS-stimulated RAW 264.7. The test is classed as cell-based. The following applies: Mus musculus, RAW264.7; at 10 μM; read-out: TNFα: % inh.
Test [3] has as its system Erk1/2 phosphorylation. In words: Erk1/2 Phosphorylation Assay (western blot), Panc-1. The test is classed as cell-based, human. The settings on record: at 10 μM, * = activation. On the procedure:
Protocol for Western Erk1/2 Cell-Based Phosphorylation Assay
This assay is referred to as the “Erk1/2 Phosphorylation Assay” throughout this application.
Cell lines: Human tumor-derived pancreatic cancer cell line Panc-1 (expressing KRas G12D mutant) was purchased from American Type Culture Collection and grown in complete DMEM-High Glucose medium, supplemented with penicillin (100 U/mL), streptomycin (100 μg/mL), and 10% heat-inactivated FBS at 37° C. in a humidified incubator with 5% CO2.
Method 1: Cells were plated at 350000 cells/well density in a 12-well plate, allowed 3 hours to adhere to the plate, then starved in the appropriate medium in the presence of 0.5% FBS overnight. The small molecules to be tested were added to the cells in the final concentration of 10 μM in the presence of 0.3% DMSO for 6 hours incubation at 37° C. For IC50 value determination, serial dilutions of compounds were added to cells under the same conditions. Next, cells were stimulated with 1.5 ng/ml EGF for 15 minutes then cells were lysed with lysis buffer containing 1% Triton X-100, EDTA, and Halt™ Protease & Phosphatase Inhibitor Cocktail (Thermo Scientific). Protein concentration was assessed by BCA protein assay (Thermo Scientific). Phosphorylation level of Erk1/2 was determined by western blot.
Method 2: Cells were plated at 350000 cells/well density in a 12-well plate in 10% FBS. The next day small molecules to be tested were added to the cells in the final concentration of 10 μM in the presence of 0.3% DMSO for 6 hours incubation at 37° C. For IC50 value determination, serial dilutions of compounds were added to cells under the same conditions. Next, cells were lysed with lysis buffer containing 1% Triton X-100, EDTA, and Halt™ Protease & Phosphatase Inhibitor Cocktail (Thermo Scientific). Protein concentration was assessed by BCA protein assay (Thermo Scientific). Phosphorylation level of Erk1/2 was determined by western blot.
Western blot protocol: Equal amounts of protein (15-50 μg) were separated by SDS-PAGE and transferred to nitrocellulose membranes (Invitrogen by Thermo Fisher Scientific). The membrane was stained with Ponceau S Stain (Boston BioProducts) to verify uniform protein loading. Membranes were blocked with 10% milk and phosphorylation levels of Erk1/2 were assessed by incubating overnight at 4° C. with anti-phospho-p44/42 (Thr202/Tyr204) antibody (Cell Signaling) followed by HRP-conjugated secondary antibody (Jackson Immunoresearch, West Grove, PA). Bands were incubated in Amersham ECL Prime Western Blotting Detection Reagent (GE Healthcare) and visualized using the ChemiDoc MP imaging system (Bio-Rad).
In general terms: In western blotting, separated proteins are transferred to a membrane and probed.

With `Cc1c(-c2ccn(C(C)C)n2)cn2nc(-c3nccn3C)nc(Nc3cc(OCCN(C)C)ncn3)c12` [Compound 123, N-(6-(2-(Dimethylamino)ethoxy)pyrimidin-4-yl)-6-(1-isopropyl-1H-pyrazol-3-yl)-5-methyl-2-(1-methyl-1H-imidazol-2-yl)pyrrolo[2,1-f][1,2,4]triazin-4-amine], the inhibition in test [1] fell in the range of 75 to 100%. Besides, the inhibition at 10 µM in test [2] lay in the range of 25 to 49%. Further, in test [3], the “% inh of Erk1/2 phosphorylation in Panc-1” value (from here on “% inh”) was “A* (1-25% activation)”.

For `COCCO[C@H]1C[C@H](Nc2nc(-c3nccn3C)nn3cc(-c4ccnc(OC)c4)c(C)c23)C1` [Compound 161, N-((1r,3r)-3-(2-Methoxy-ethoxy)cyclo-butyl)-6-(2-methoxy-pyridin-4-yl)-5-methyl-2-(1-methyl-1H-imidazol-2-yl)pyrrolo[2,1-f][1,2,4]triazin-4-amine], the inhibition in test [1] lay within 75 to 100%. Also, the inhibition at 10 µM in test [2] lay in the range of 50 to 74%. In test [3], the “% inh” value is reported as “A (1-25% inhibition)”.

Regarding `COc1ccnc(Nc2nc(-c3nccn3C)nn3cc(-c4cnn(C(C)C)c4)c(C)c23)c1` [Compound 165, 6-(1-Isopropyl-1H-pyrazol-4-yl)-N-(4-methoxypyridin-2-yl)-5-methyl-2-(1-methyl-1H-imidazol-2-yl)pyrrolo[2,1-f][1,2,4]triazin-4-amine], the inhibition in test [1] fell in the range of 50 to 74%. Also, in test [2], the inhibition at 10 µM was 1 to 24%. In addition, in test [3], the “% inh” value is “C* (46-84% activation)”.

As for `Cc1c(-c2ccn(C(C)C)n2)cn2nc(-c3nccn3C)nc(Nc3nccc(OCCO)n3)c12` [Compound 121, 2-((2-((6-(1-Isopropyl-1H-pyrazol-3-yl)-5-methyl-2-(1-methyl-1H-imidazol-2-yl)pyrrolo[2,1-f][1,2,4]triazin-4-yl)amino)pyrimidin-4-yl)oxy)ethan-1-ol], the inhibition in test [1] was 50 to 74%. In addition, the inhibition at 10 µM in test [2] is 25 to 49%. For the same compound, the “% inh” value in test [3] is “D* (85-100% activation)”.

Consider `Cc1c(-c2ccn(C3CC3)n2)cn2nc(-c3nccn3C)nc(O)c12` [Compound 134, 6-(1-Cyclopropyl-1H-pyrazol-3-yl)-5-methyl-2-(1-methyl-1H-imidazol-2-yl)pyrrolo[2,1-f][1,2,4]triazin-4-ol], for which the inhibition in test [1] is 1 to 24%. Moreover, the inhibition at 10 µM in test [2] lay within 1 to 24%. Further, the “% inh” value in test [3] was “B (26-49% inhibition)”.

On to `Cc1c(-c2ccn(C)n2)cn2nc(-c3nccn3C)nc(Nc3cnccn3)c12` [Compound 120, 5-Methyl-2-(1-methyl-1H-imidazol-2-yl)-6-(1-methyl-1H-pyrazol-3-yl)-N-(pyrazin-2-yl)pyrrolo[2,1-f][1,2,4]triazin-4-amine], for which, in test [1], the inhibition was in the range of 25 to 49%. In addition, in test [2], the inhibition at 10 µM was 1 to 24%. Moreover, the “% inh” value in test [3] was “C* (46-84% activation)”.

For `Cc1c(-c2ccn(C)n2)cn2nc(-c3nccn3C)nc(Nc3cc(OCCO)ncn3)c12` [Compound 101, 2-((6-((5-Methyl-2-(1-methyl-1H-imidazol-2-yl)-6-(1-methyl-1H-pyrazol-3-yl)pyrrolo[2,1-f][1,2,4]triazin-4-yl)amino)pyrimidin-4-yl)oxy) ethan-1-ol], the inhibition in test [1] was 50 to 74%. Moreover, in test [2], the inhibition at 10 µM was 0%. Further, the “% inh” value in test [3] is given as “A* (1-25% activation)”.

`Cc1c(-c2ccn(C)n2)cn2nc(-c3nccn3C)nc(Nc3ccn(C4CC4)n3)c12` [Compound 111, N-(1-Cyclopropyl-1H-pyrazol-3-yl)-5-methyl-2-(1-methyl-1H-imidazol-2-yl)-6-(1-methyl-1H-pyrazol-3-yl)pyrrolo[2,1-f][1,2,4]triazin-4-amine]: in test [1], the inhibition lay within 75 to 100%. Further, in test [2], the inhibition at 10 µM lay within 50 to 74%. Also, the “% inh” value in test [3] is on record as “A* (1-25% activation)”.

`COc1cc(Nc2nc(-c3nccn3C)nn3cc(-c4ccn(C5CC5)n4)c(C)c23)ncn1` [Compound 135, 6-(1-Cyclopropyl-1H-pyrazol-3-yl)-N-(6-methoxypyrimidin-4-yl)-5-methyl-2-(1-methyl-1H-imidazol-2-yl)pyrrolo[2,1-f][1,2,4]triazin-4-amine]: the inhibition in test [1] is 25 to 49%. In addition, the inhibition at 10 µM in test [2] lay within 1 to 24%. Besides, the “% inh” value in test [3] was “D* (85-100% activation)”.

Regarding `Cc1c(-c2ccn(C)n2)cn2nc(-c3nccn3C)nc(Nc3n[nH]c(C4CC4)n3)c12` [Compound 113, N-(5-Cyclopropyl-1H-1,2,4-triazol-3-yl)-5-methyl-2-(1-methyl-1H-imidazol-2-yl)-6-(1-methyl-1H-pyrazol-3-yl)pyrrolo[2,1-f][1,2,4]triazin-4-amine], the inhibition in test [1] was 75 to 100%. For the same compound, the inhibition at 10 µM in test [2] was in the range of 25 to 49%. Further, in test [3], the “% inh” value is “D* (85-100% activation)”.

`COc1cncnc1Nc1nc(-c2nccn2C)nn2cc(-c3ccn(C)n3)c(C)c12` [Compound 107, N-(5-Methoxypyrimidin-4-yl)-5-methyl-2-(1-methyl-1H-imidazol-2-yl)-6-(1-methyl-1H-pyrazol-3-yl)pyrrolo[2,1-f][1,2,4]triazin-4-amine]: the inhibition in test [1] lay in the range of 25 to 49%. Also, in test [2], the inhibition at 10 µM lay within 1 to 24%. In addition, the “% inh” value in test [3] is reported as “D* (85-100% activation)”.

On to `Cc1c(-c2ccn(C(C)C)n2)cn2nc(-c3ccccn3)nc(O)c12` [Compound 8, 6-(1-Isopropyl-1H-pyrazol-3-yl)-5-methyl-2-(pyridin-2-yl)pyrrolo[2,1-f][1,2,4]triazin-4-ol], for which the inhibition in test [1] turned out to be 0%. Further, the inhibition at 10 µM in test [2] was found to be 0%. For the same compound, the “% inh” value in test [3] is recorded as 0 (0% inhibition).

Consider `CO[C@H]1C[C@H](Nc2nc(-c3nccn3C)nn3cc(-c4cccnc4)c(C)c23)C1` [Compound 151, N-((1r,3r)-3-Methoxycyclobutyl)-5-methyl-2-(1-methyl-1H-imidazol-2-yl)-6-(pyridin-3-yl)pyrrolo[2,1-f][1,2,4]triazin-4-amine], for which the inhibition in test [1] worked out at 0%. In addition, the inhibition at 10 µM in test [2] is 0%. In test [3], the “% inh” value is “D* (85-100% activation)”.

`Cc1c(-c2ccn(C3CC3)n2)cn2nc(-c3nccn3C)nc(Nc3cc(OCCN(C)C)ccn3)c12` [Compound 147, 6-(1-Cyclopropyl-1H-pyrazol-3-yl)-N-(4-(2-(dimethylamino)ethoxy)pyridin-2-yl)-5-methyl-2-(1-methyl-1H-imidazol-2-yl)pyrrolo[2,1-f][1,2,4]triazin-4-amine]: the inhibition in test [1] was 0%. The inhibition at 10 µM in test [2] lay within 1 to 24%. The “% inh” value in test [3] is reported as “A* (1-25% activation)”.

Turning to `Cc1c(-c2ccn(C(C)C)n2)cn2nc(-c3nccn3C)nc(Nc3nccc(OCCN(C)C)n3)c12` [Compound 96, N-(4-(2-(Dimethylamino)ethoxy)pyrimidin-2-yl)-6-(1-isopropyl-1H-pyrazol-3-yl)-5-methyl-2-(1-methyl-1H-imidazol-2-yl)pyrrolo[2,1-f][1,2,4]triazin-4-amine], the inhibition in test [1] lay within 50 to 74%. In addition, in test [2], the inhibition at 10 µM amounted to 0%. For the same compound, in test [3], the “% inh” value was 0 (0% inhibition).
